Results on one compound are retold here after paper PMC10824666 (Nature Cancer, 2023).

One experiment deals with T1, PKA alpha (Homo sapiens, UniProt P17612).
T1 construct: gene PRKACA
The experiment is described as follows: biochemical. The conditions noted are these: read-out: Kinome Profiling performed by Eurofins DiscoverX / AM-5308, 1.0 µM / POC; competitive binding, percent of DMSO control. Set-up: Eurofins DiscoverX kinase panel, competitive binding assay at 1 uM, percent of DMSO control. The procedure, abridged: (§1)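 Single-point profiling at 1 µM compound in a competition-binding format against 96 kinases, read out as POC relative to control; n = 1.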

The next experiment concerns the target T2, PKR (Homo sapiens, UniProt P19525).
T2 construct: gene EIF2AK2
As to the kind of experiment: biochemical. Details: Eurofins DiscoverX kinase panel, competitive binding assay at 1 uM, percent of DMSO control. To be noted: read-out: Kinome Profiling performed by Eurofins DiscoverX / AM-5308, 1.0 µM / POC; competitive binding, percent of DMSO control. The procedure, abridged:
as §1

T2 sequence (P19525 whole entry): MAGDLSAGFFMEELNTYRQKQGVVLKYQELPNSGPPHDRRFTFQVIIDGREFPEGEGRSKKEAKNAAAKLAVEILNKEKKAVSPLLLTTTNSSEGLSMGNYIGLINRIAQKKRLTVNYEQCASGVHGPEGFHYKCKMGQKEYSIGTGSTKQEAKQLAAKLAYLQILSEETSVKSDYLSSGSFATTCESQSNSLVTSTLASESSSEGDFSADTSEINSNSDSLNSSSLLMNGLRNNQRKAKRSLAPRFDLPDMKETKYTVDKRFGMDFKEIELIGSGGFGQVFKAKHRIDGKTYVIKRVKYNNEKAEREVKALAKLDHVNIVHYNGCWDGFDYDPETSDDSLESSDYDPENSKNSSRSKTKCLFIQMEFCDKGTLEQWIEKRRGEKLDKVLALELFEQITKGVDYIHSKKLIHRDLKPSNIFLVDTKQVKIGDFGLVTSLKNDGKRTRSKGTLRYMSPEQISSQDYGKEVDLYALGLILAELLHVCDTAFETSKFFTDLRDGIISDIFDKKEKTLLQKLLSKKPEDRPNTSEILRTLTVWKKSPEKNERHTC

Consider `C[C@@H]1CN(c2cccc(NC(=O)c3ccc(NS(=O)(=O)CCO)cc3N3CCC4(CC3)CC4)n2)CCO1` [AM-5308], for which the remaining activity at 1 µM amounted to 100% on PKA alpha and 90% on PKR.
